Data set [1] can be described thus: Transport experiments in CF-loaded zwitterionic EYPC vesicles (CF fluorescence, Hill analysis). It counts as biochemical. The following applies: for membrane transport activity: pH 5.5 and 7.4, heptaArg, protamine, polyArg (for [AlMo6]^3- heptaArg and protamine only); for behaviour towards liposomes at strongly acidic pH: pH 1.2. Set-up: key to membrane transport activity: - - -: No detectable activity at pH 5.5 and 7.4. The method, then: The dry film was rehydrated with 1 mL buffer (50 mM CF, 10 mM Hepes, pH 7.4 or 50 mM CF, 10 mM Tris, pH 7.4) for 30 min at room temperature, subjected to freeze-thaw cycles (7 times) and extrusions (15 times) through a polycarbonate membrane (pore size 100 nm). Extravesicular components were removed by size exclusion chromatography (NAP-25 column Sephadex G-25 DNA grade) with 10 mM Hepes, 107 mM NaCl, pH 7.4 or 10 mM Hepes, 107 mM NaCl, pH 7.4. Phospholipid concentration was calculated by the Stewart assay. […]
Vesicles stock solutions (5-10 µL) were diluted with the corresponding buffer in a disposable plastic cuvette and gently stirred (total volume 2000 µL, final lipid concentration 13 µM). […] Fluorescence intensities were normalized to fractional emission as: I(t) = (It −I0)/(I∞ −I0) [formula]
Where I0 = It before POM addition and […] = I∞ after lysis. For Hill analysis, It before lysis was defined as transport activity, Y, and plotted against POM concentration, c, and fitted to the Hill equation (2), to afford the activity in absence of POM, Y0, the maximal activity, Ymax, the concentration needed to achieve 50 % of maximal activity, EC50, and the Hill coefficient, n. Y = Y0 + (Ymax −Y0)/(1 + (((EC50)/(c)))^n) [formula]
In the transport measurements, where different carriers (POMs) are tested with the same cargo, the activator efficiency (E) is determined by their capacity to transport the impermeable cargo to the intravesicular region and is characterized by Ymax, its maximal activity, and EC50, the effective activator concentration. An ideal carrier reaches high Ymax at low EC50. To count both factors, the activator efficiency is defined as: E = Ymax (pEC50)/(f) [formula] were pEC50 is the negative logarithm of the EC50, and fa scaling factor, which was set to 20.6 to calibrate the highest (previously known) activation efficiency, E, as 10.
The capability of POMs to act as membrane carriers was explored first in large unilamellar vesicles (LUVs), loaded with carboxyfluorescein (CF). We selected […] representative cationic peptides, heptaarginine (heptaArg), heptalysine (heptaLys), protamine, and polyarginine (polyArg), as test cargos. Inside the LUVs, the CF dye was encapsulated at self-quenching concentrations. With a suitable carrier, heptaArg can be taken up into the vesicles, bind with entrapped CF, and shuttle back to the exterior, spreading the previously quenched CF, and thereby restoring its fluorescence (Fig. 3). In the time-resolved fluorescence experiments, to test whether a POM acts as molecular carrier, the CF emission was continuously monitored during the addition of the inorganic carrier (t = 60 s) and after injection the impermeable heptaArg (t = 120 s). At the end of the experiment (t = 600 s), the surfactant Triton X-100 was added to release all the entrapped CF and allow normalization of the intensity data (Fig. 4a).

Data set [2] in a line: Stability investigation by NMR spectroscopy (hydrolysis in buffer/media). It counts as physicochemical. The following applies: for Hydrolysis/Stability pH 7.5: 10 mM Hepes or 10 mM Tris, pH 7.4; for Hydrolysis/Stability pH 7.5 / Hydrolysis/Stability pH 5.5: 107 mM NaCl; for Hydrolysis/Stability pH 5.5: 10 mM Mes; for long-term stability in aqueous solution: slightly acidic and neutral pH, 24 h and longer, NMR. An excerpt: POMs of the globular Keggin and planar Anderson archetype and with varying charge status from -3 to -8 (Fig. 1) were selected. To offset the known [XW12O40]^n- (X = hetero-ion) hydrolysis propensity in aqueous solution, most pronounced at neutral pH, more highly charged mixed-metal derivatives (Fig. 1,lefthand side) were also included. The latter are obtained by hydrolytic removal of one W=O^4+ unit from the Keggin structure and the subsequent incorporation of an addenda metal to fill the cavity of the monolacunary intermediate. In detail, the following POM anions were studied (as acid or sodium, potassium, or tetraalkylammonium salts), see Fig. 1: [α-P^VW^VI12O40]^3- ([PW12]^3-), [α-Si^IVW^VI12O40]^4- ([SiW12]^4-), [α-Al^IIIW^VI12O40]^5- ([AlW12]^5-), [α-P^VV^VW^VI11O40]^4- ([PVW11]^4-), [α-Si^IVMo^VIW^VI11O40]^4- ([SiMoW11]^4-), [α- HAl^IIIGe^IVW^VI11O39(H2O)]^5- ([GeAlW11]^5-), [{α-P^VW^VI11O39Zr^IV(µ-OH)(H2O)}2]^8- ([(PZrW11)2]^8-), and [Al^III(OH)6Mo^VI6O18]^3- ([AlMo6]^3-). First, their long-term (24 h and longer) stability in aqueous solution (slightly acidic and neutral) was investigated by applying the active NMR nuclei in their composition (see).

Data set [3] is described as follows: HPTS/DPX assay of membrane transport in EYPC vesicles. The following applies: Measured by HPTS/DPX assay. In kind it is biochemical.
Where [4] appears, read: EYPC vesicles, 0.1 µM polyArg, neutral pH 7.4.
Where [5] appears, read: EYPC vesicles, 0.1 µM polyArg, neutral pH 7.4, read-out: PolyArg EC50.
The mark [6] stands for this setting: EYPC vesicles, 1 µM protamine, neutral pH 7.4.
Setting [7] is: Tris-HCl pH 7.5 freshly prepared.

On to `O=C(O)CCCc1ccc2ccc3cccc4ccc1c2c34` [PyBu^-, pyrenebutyrate, reference compound], for which, in data set [1] (setting [4]), the “PolyArg E (activation efficiency)” value came to 8.5 and the “PolyArg Ymax” value is reported as 91%. Also, in data set [1] (setting [5]), the concentration for a half-maximal effect (EC50) worked out at 12 µM. In addition, in data set [1] (setting [6]), the “Protamine E (activation efficiency)” value is 5.3 and the “Protamine Ymax” value stood at 77%. Besides, the EC50 in data set [1] (EYPC vesicles, 1 µM protamine, neutral pH 7.4, read-out: Protamine EC50) came to 39 µM. Also, the “HeptaArg Ymax” value in data set [1] (EYPC vesicles, 10 µM heptaArg, neutral pH 7.4) worked out at 100%. In addition, in data set [1] (EYPC vesicles, 10 µM heptaArg, neutral pH 7.4, E = Ymax(pEC50/f), f = 20.6), the “HeptaArg E (activation efficiency)” value came to 4.8. Besides, the 50% effective concentration (EC50) in data set [1] (EYPC vesicles, 10 µM heptaArg, neutral pH 7.4, read-out: HeptaArg EC50) came to 100 µM. Besides, in data set [1] (heptaarginine 10 µM, Fig. 12), the “efficacy when the sequence of carrier-cargo addition was reversed” value is “significantly reduces its activity”. Also, in data set [2], the “Hydrolysis/Stability pH 7.5” value is “stable” and the “Hydrolysis/Stability pH 5.5” value is “stable”.
As to “(C4H12N)4[α-HAl^IIIGe^IVW^VI11O39(H2O)]·11H2O [[GeAlW11]^5-]”, the “membrane transport activity” value in data set [1] (EYPC vesicles) is “- - -[j]”. Moreover, in data set [2], the “Hydrolysis/Stability pH 7.5” value is “stable”. For the same molecule, the “POM anions with % for parent (active) anion based on signals integration” value (“POM anions with % for parent” for short) in data set [2] (Tris-HCl pH 7.5 after 1 day) and in data set [2] (setting [7]) was “[HAl^IIIGe^IVW^VI11O39(H2O)] ^4-” throughout. Also, in data set [2], the “long-term stability in aqueous solution” value is reported as “stable at neutral pH”.
Turning to “(Et2NH2)8[{α-P^VW^VI11O39Zr^IV(µ-OH)(H2O)}2]·7H2O [[(PZrW11)2]^8-]”, in data set [1] (EYPC vesicles), the “membrane transport activity” value was “- - -[j]”. In addition, the “Hydrolysis/Stability pH 7.5” value in data set [2] was “stable”. Also, the “POM anions with % for parent” value in data set [2] (Hepes pH 7.5 after 1 day) was “[{α-PW11O39Zr(µ-OH)(H2O)}2]^8-·(99 %) and [Zr(α-PW11O39)2]^10-”; in data set [2] (Hepes pH 7.5 freshly prepared), “[{α-PW11O39Zr(µ-OH)(H2O)}2]^8-·(99 %) and [Zr(α-PW11O39)2]^10-”.
Consider B12Br12^2-, for which, in data set [3] (0.1 µM polyArg, pH 7.4), the “PolyArg E (activation efficiency)” value amounted to 12 and the “PolyArg Ymax” value came to 94%. In addition, in data set [3] (0.1 µM polyArg, pH 7.4, read-out: PolyArg EC50), the EC50 was 2.6 µM. Besides, in data set [3] (1 µM protamine, pH 7.4), the “Protamine E (activation efficiency)” value was found to be 8.0 and the “Protamine Ymax” value is 84%. For the same molecule, in data set [3] (1 µM protamine, pH 7.4, read-out: Protamine EC50), the EC50 was found to be 11 µM. In data set [3] (10 µM heptaArg, pH 7.4), the “HeptaArg E (activation efficiency)” value worked out at 6.1 and the “HeptaArg Ymax” value was 95%. In addition, the EC50 in data set [3] (10 µM heptaArg, pH 7.4, read-out: HeptaArg EC50) is 48 µM. In data set [2], the “Hydrolysis/Stability pH 7.5” value was “stable” and the “Hydrolysis/Stability pH 5.5” value was “stable”.
Take K4[α-Si^IVW^VI12O40]·14H2O [[SiW12]^4-]: the “membrane transport activity” value in data set [1] (EYPC vesicles) was “- - -[jilt]”. Besides, the “behaviour towards liposomes at strongly acidic pH” value in data set [1] was “showed the desired cargo transport at acidic pH, without membrane disruption”. In data set [2], the “Hydrolysis/Stability pH 7.5” value is “to [Si^VW^VI8O39]^8-”, the “hydrolysis above pH 4.5” value was “rapid hydrolysis” and the “long-term stability in aqueous solution” value was “fully hydrolyzed”. In addition, in data set [2] (Hepes pH 7.5 (time not given)), the “POM anions with % for parent” value is “[Si^IVW^VI12O40]^4- and [Si^IVW^VInO39]^8- (high noise to signal ratio, correct integration of peak cannot be performed; but clearly [Si^IVW^VI11O39]^8- is predominant)”.
For “Na3[Al^III(OH)6Mo^VI6O18]·2H2O [[AlMo6]^3-]”, the “PolyArg E (activation efficiency)” value in data set [1] (setting [4]) came out at 3.1. For the same molecule, the “PolyArg Ymax” value in data set [1] (setting [4]) is 33%. In data set [1] (setting [5]), the EC50 came out at 11 µM. In addition, the “membrane transport activity” value in data set [1] (EYPC vesicles) is “- - -[j]”. Further, the “cargo transport in CF-loaded vesicles (qualitative)” value in data set [1] (LUVs loaded with CF, added cargo) was “incipient transport activity, but only for polyarginine as cargo”. Besides, the “Hydrolysis/Stability pH 7.5” value in data set [2] is listed as “stable”. Moreover, the “POM anions with % for parent” value in data set [2] (Hepes pH 7.5 after 1 day) and in data set [2] (Hepes pH 7.5 freshly prepared) was “[Al^III(OH)6MO^VI6O18]^3-” each time.
As to Na3[α-P^VW^VI12O40]·nH2O [[PW12]^3-], the “membrane transport activity” value in data set [1] (EYPC vesicles) is “- - -[j,k]”. Besides, the “behaviour towards liposomes at strongly acidic pH” value in data set [1] is “strong interaction and membrane disruption”. The “Hydrolysis/Stability pH 5.5” value in data set [2] is “to [P^VW^VI11O39]^7-”. For the same molecule, the “% of hydrolysis product [P^VW^VI11O39]^7- based on signals integration” value in data set [2] (Mes pH 5.5 after 1 day) and in data set [2] (Mes pH 5.5 freshly prepared) was 61% in each case. For the same molecule, the “POM anions with % for parent” value was 5% in data set [2] (Mes pH 5.5 after 1 day); 4% in data set [2] (Mes pH 5.5 freshly prepared); “[P^VW^VI12O40]^3- (28 %) and intermediate anions” in data set [2] (NaOAc/HOAc pH 4 after 1 day); “[P^VW^VI12O40]^3- (30 %) and intermediate anions” in data set [2] (NaOAc/HOAc pH 4 freshly prepared). Further, the “hydrolysis above pH 4.5” value in data set [2] is recorded as “rapid hydrolysis”. Besides, the “long-term stability in aqueous solution” value in data set [2] was “fully hydrolyzed”.
In the case of “Na5[α-Al^IIIW^VI12O40]·12H2O [[AlW12]^5-]”, in data set [1] (EYPC vesicles), the “membrane transport activity” value was “- - -[j]”. For the same molecule, in data set [2], the “Hydrolysis/Stability pH 7.5” value is on record as “stable” and the “long-term stability in aqueous solution” value was “stable at neutral pH”. Besides, the “POM anions with % for parent” value in data set [2] (Tris-HCl pH 7.5 after 1 day) was “[Al^IIIW^VI12O40]^5-”. In data set [2] (setting [7]), the “POM anions with % for parent” value is “[Al^IIIW^VI12O40]^5-”.

The term EC50 denotes the midpoint of the concentration-response curve.

(Values after patent EP4483904A1, “POLYOXOMETALATES AS MEMBRANE CARRIERS” (Universität Wien, priority 2023, dated 2025).)
